Experimental findings from patent publication US9593149B2, “Amylin and calcitonin receptor agonist” (Novo Nordisk A/S, priority 2014, dated 2017) are described below.

SMILES strings stand for the structures. pEC50, pIC50: −log10 of the molar value. ≈ marks a conversion by molar mass, not a printed value. Numbered stars: 1 amine (or outer) side, 2 acyl side, 3 side chain; on linkers, the order of the positions; unused ones are H or OH. Peptide text beside a SMILES is read from it. * marks the point of attachment. C20 diacid = O=C(O)CCCCCCCCCCCCCCCCCCC(=O)*; γGlu = O=C(O)[C@H](CCC(=O)[*:2])N[*:1]

For data set [1], the target named is T1, human amylin 3(a) receptor (human calcitonin receptor + RAMP-3), BHK570 cells (Homo sapiens, UniProt O60896+P30988).
T1 construct: host or cells: BHK570
T1 sequence (O60896 24-148, one chain of several): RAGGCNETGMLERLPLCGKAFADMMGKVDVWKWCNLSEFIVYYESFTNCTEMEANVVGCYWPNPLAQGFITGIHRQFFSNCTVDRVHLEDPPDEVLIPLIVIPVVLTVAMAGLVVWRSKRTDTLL
The data set can be described thus: Assay (II)b functional CRE-luciferase assay without albumin, human amylin receptor. In kind it is cell-based. Particulars: Tested without HSA; read-out: hAmylin-R funct. EC50. An excerpt: (§1) Assay(II)b—Human Calcitonin and Amylin Receptor Assay without Albumin
(§2) 1. Luciferase Assay Outline
(§3) Activation of calcitonin and amylin (co-expression of calcitonin receptor and receptor activity modifying proteins (RAMP)) receptors lead to increased intracellular concentrations of cAMP. Consequently, transcription is activated by promoters containing multiple copies of the cAMP response element (CRE). It is thus possible to measure amylin activity by the use of a CRE luciferase reporter gene introduced into BHK cells also expressing calcitonin or amylin receptors.
(§4) 2. Construction of Calcitonin (a)—and Amylin 3(a)—Receptor/CRE-Luc Cell Line.
(§5) A BHK570 cell line was stably transfected with the human calcitonin receptor and a CRE-responsive luciferase reporter gene (Hollex-1 cell line, obtained from ZymoGenetics described in U.S. Pat. No. 5,622,839). The cell line was further transfected with RAMP-3, using standard methods. This turns the calcitonin receptor into an amylin 3(a) receptor. Methotrexate, Neomycin, and Hygromycin are selection markers for luciferase, the calcitonin receptor, and RAMP-3, respectively. To prepare the batches of frozen cells used in the luciferase assay described in the section below, the cells were cultured in growth medium (DMEM with 10% FBS, 1% Pen/Strep and 1 mM Napyruvate). […] Cells at approximately 80-90% confluence were washed with PBS and loosened from the plates with Versene. After centrifugation (2 min, 1300 rpm, in a Centrion Scientific centriuge C2 series with a BRK 5510 rotor head), the cell pellet was dissolved in 10% DMSO, 30% FBS and 60% growth medium and frozen (−80° C.) until utilization.
(§6) The day before the experiment, BHK calcitonin (a) receptor- or amylin 3(a)-receptor/CRE-luc cells were thawed, washed twice, and seeded in 40 μl growth medium on white 384 well culture plates (4.000 cells/well). On the assay day, the cells were washed 3 times in assay media (Dulbecco media W/o phenol red, 500 ml (Gibco, 11880-028); 0.1% ovalbumin; 10 mM Hepes pH 7.4; 1× Glutamin; 1% Pen/Strep). Then, 30 μl/well of sample diluted in assay buffer was added. After 3 hours of incubation at 37° C. and 5% CO2, the reaction was terminated by adding 30 μl/well SteadyLite Plus™. The plates were shaken at 300 rpm for 5 min at RT. Then, the plates were sealed and incubated at room temperature for 30 minutes. Finally, luminescence was tested on a TopCounter (Packard) in SPC (single photon counting) mode.
(§7) Additional Comment Regarding Use of Data Retrieved Via this Method
(§8) For the same reasons, measurements made in Assay IIa should not be compared in Assay IIb.

Data set [2] has as its target T2, human calcitonin (a) receptor, BHK570 cells (Homo sapiens, UniProt P30988).
T2 construct: host or cells: BHK570
T2 sequence (P30988 25-474): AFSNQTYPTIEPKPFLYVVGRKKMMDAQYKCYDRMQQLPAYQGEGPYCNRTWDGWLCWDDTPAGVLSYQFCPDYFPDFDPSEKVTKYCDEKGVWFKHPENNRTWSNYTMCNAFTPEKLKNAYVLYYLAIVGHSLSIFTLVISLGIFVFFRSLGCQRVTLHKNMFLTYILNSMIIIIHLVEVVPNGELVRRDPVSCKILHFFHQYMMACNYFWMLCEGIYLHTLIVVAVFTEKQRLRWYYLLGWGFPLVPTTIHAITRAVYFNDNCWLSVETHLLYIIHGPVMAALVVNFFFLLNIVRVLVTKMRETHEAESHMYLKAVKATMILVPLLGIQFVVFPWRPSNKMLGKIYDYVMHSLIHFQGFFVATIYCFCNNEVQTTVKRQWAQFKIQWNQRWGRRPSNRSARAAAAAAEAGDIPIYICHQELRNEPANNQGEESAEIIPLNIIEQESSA
The data set can be described thus: Assay (II)b functional CRE-luciferase assay without albumin, human calcitonin receptor. It is filed as cell-based. As to conditions: Tested without HSA; read-out: hCTR funct. EC50.
Text: as §1, §2, §3, §4, §5, §6, §7, §8

Data set [3] in a line: Assay (IV) determination of solubility. It is filed as physicochemical. As to conditions: for solubility at 18 h: pH 4.0. On the procedure: Assay (IV)—Determination of Solubility
The mimylin peptide was dissolved in water at ˜500 nmol/ml and mixed 1:1 with a series of buffers (100 mM glycylglycine pH 3.0, 100 mM glycylglycine pH 4.0, 100 mM glycylglycine pH 5.0, 100 mM bistrispropane pH 6.0, 100 mM bistrispropane pH 6.5, 100 mM bistrispropane pH 7.0, 100 mM bistrispropane pH 7.5, 100 mM bistrispropane pH 8.0).

Data set [4] addresses T3, rat calcitonin receptor (Rattus norvegicus, UniProt P32214).
T3 construct: expressed in transfected cells; host or cells: BHK tk'ts 13 (transient, FuGENE 6)
T3 sequence (P32214 25-479 isoform P32214-2 limits assumed): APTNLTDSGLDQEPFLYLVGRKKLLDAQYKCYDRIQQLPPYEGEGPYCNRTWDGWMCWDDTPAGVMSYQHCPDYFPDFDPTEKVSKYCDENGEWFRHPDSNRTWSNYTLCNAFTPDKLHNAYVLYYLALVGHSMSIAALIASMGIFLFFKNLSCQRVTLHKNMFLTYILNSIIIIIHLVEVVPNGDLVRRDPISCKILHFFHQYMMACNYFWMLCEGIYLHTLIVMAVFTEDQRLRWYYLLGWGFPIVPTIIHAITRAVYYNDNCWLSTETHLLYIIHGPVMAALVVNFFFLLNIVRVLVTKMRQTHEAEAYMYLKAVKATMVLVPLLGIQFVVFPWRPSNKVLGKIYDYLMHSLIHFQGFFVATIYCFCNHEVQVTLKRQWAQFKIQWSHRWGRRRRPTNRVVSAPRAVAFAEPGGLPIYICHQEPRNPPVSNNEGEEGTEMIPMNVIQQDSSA
Put plainly: Assay (VIII) binding to the rat calcitonin receptor. Particulars: membranes; read-out: rCT-R binding IC50. The method in brief: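 Competition binding on membranes from BHK tk'ts 13 cells transiently transfected with rat calcitonin receptor, otherwise run as the human receptor assay. Plates washed in cold HBSS, lysed in 0.1 M NaOH/1% SDS and scintillation-counted. IC50 from one-site competition fit as affinity measure.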

As for `CC(C)C[C@H](NC(=O)CNC(=O)[C@H](CO)NC(=O)[C@H](C)N)C(=O)N[C@@H](CO)C(=O)N[C@H](C(=O)N[C@@H](C)C(=O)N[C@H](C(=O)N[C@@H](CC(C)C)C(=O)NCC(=O)N[C@@H](CCCNC(=N)N)C(=O)N[C@@H](CC(C)C)C(=O)N[C@@H](CO)C(=O)N[C@@H](CCC(N)=O)C(=O)N[C@@H](CCC(=O)O)C(=O)N[C@@H](CC(C)C)C(=O)N[C@@H](Cc1c[nH]cn1)C(=O)N[C@@H](CCC(=O)O)C(=O)N[C@@H](CC(C)C)C(=O)N[C@@H](CCC(N)=O)C(=O)N[C@H](C(=O)N[C@@H](Cc1ccc(O)cc1)C(=O)N1CCC[C@H]1C(=O)N[C@@H](CCCNC(=N)N)C(=O)N[C@H](C(=O)N[C@@H](CCC(=O)O)C(=O)N[C@H](C(=O)NCC(=O)N[C@@H](CO)C(=O)NCC(=O)N[C@H](C(=O)N[C@@H](Cc1ccc(O)cc1)C(N)=O)[C@@H](C)O)[C@@H](C)O)[C@@H](C)O)[C@@H](C)O)C(C)C)[C@@H](C)O` [118bb, [des1, 4G, 9V, 15Q, 21Q, 23Y, 30S, 31G, 32T, 33Y]mimylin], the pEC50 (commonly the negative decadic logarithm of the EC50, by convention in mol/L) in data set [1] was 11.10; in data set [2], 11.40.

As for `CC(C)C[C@H](NC(=O)CNC(=O)[C@H](CO)NC(=O)[C@H](C)N)C(=O)N[C@@H](CO)C(=O)N[C@H](C(=O)N[C@@H](C)C(=O)N[C@H](C(=O)N[C@@H](CC(C)C)C(=O)NCC(=O)N[C@@H](CCCNC(=N)N)C(=O)N[C@@H](CC(C)C)C(=O)N[C@@H](CO)C(=O)N[C@@H](CCC(N)=O)C(=O)N[C@@H](CCC(=O)O)C(=O)N[C@@H](CC(C)C)C(=O)N[C@@H](Cc1c[nH]cn1)C(=O)N[C@@H](CCC(=O)O)C(=O)N[C@@H](CC(C)C)C(=O)N[C@@H](CCC(N)=O)C(=O)N[C@H](C(=O)N[C@@H](Cc1ccc(O)cc1)C(=O)N1CCC[C@H]1C(=O)N[C@@H](CCCNC(=N)N)C(=O)N[C@H](C(=O)N[C@@H](CCC(=O)O)C(=O)N[C@H](C(=O)NCC(=O)N[C@@H](CO)C(=O)NCC(=O)N[C@H](C(=O)N[C@@H](Cc1ccc(O)cc1)C(N)=O)[C@@H](C)O)[C@@H](C)O)[C@@H](C)O)[C@@H](C)O)[C@@H](C)O)[C@@H](C)O` [124bb, [des1, 4G, 9T, 15Q, 21Q, 23Y, 30S, 31G, 32T, 33Y]mimylin] (H-ASGLSTATLGRLSQELHELQTYPRTETGSGTY-NH2; N-terminus and C-terminus assumed), the pEC50 in data set [1] was 11.30; in data set [2], 11.40.

With `CC(C)C[C@H](NC(=O)CNC(=O)[C@H](CO)NC(=O)[C@H](C)NC(=O)CC[C@H](NC(=O)CCCCCCCCCCCCCCCCCCC(=O)O)C(=O)O)C(=O)N[C@@H](CO)C(=O)N[C@H](C(=O)N[C@@H](C)C(=O)N[C@H](C(=O)N[C@@H](CC(C)C)C(=O)NCC(=O)N[C@@H](CCCNC(=N)N)C(=O)N[C@@H](CC(C)C)C(=O)N[C@@H](CO)C(=O)N[C@@H](CCC(N)=O)C(=O)N[C@@H](CCC(=O)O)C(=O)N[C@@H](CC(C)C)C(=O)N[C@@H](Cc1cnc[nH]1)C(=O)N[C@@H](CCC(=O)O)C(=O)N[C@@H](CC(C)C)C(=O)N[C@@H](CCC(N)=O)C(=O)N[C@H](C(=O)N[C@@H](Cc1ccc(O)cc1)C(=O)N1CCC[C@H]1C(=O)N1CCC[C@H]1C(=O)N[C@H](C(=O)N[C@@H](CCC(=O)O)C(=O)N[C@H](C(=O)NCC(=O)N[C@@H](CO)C(=O)NCC(=O)N[C@H](C(=O)N[C@@H](Cc1ccc(O)cc1)C(N)=O)[C@@H](C)O)[C@@H](C)O)[C@@H](C)O)[C@@H](C)O)[C@@H](C)O)[C@@H](C)O` [compound 128, [N-terminal(C20 diacid-gGlu), des1, 4G, 9T, 15Q, 21Q, 23Y, 25P, 30S, 31G, 32T, 33Y]mimylin] ({C20 diacid-γGlu}-ASGLSTATLGRLSQELHELQTYPPTETGSGTY-NH2), the Solubility entry in data set [3] (pH 3.0), in data set [3] (pH 5.0), in data set [3] (pH 6.0), in data set [3] (pH 6.5), in data set [3] (pH 7.0) and in data set [3] (pH 7.5) was “≧200 μM” in each case. Besides, the Solubility entry in data set [3] (pH 8.0) was “≧200 μM”. In data set [3], the solubility – broadly, the dissolved amount per volume that the medium holds – at 18 h is 25 µM (≈ 95.5 µg/mL). Besides, in data set [4], the pIC50 (in general, the IC50 on a negative log10 scale, so that one unit is a factor of ten) is 10.55.

For the compound `CC(C)C[C@H](NC(=O)CNC(=O)[C@H](CO)NC(=O)[C@H](C)NC(=O)CC[C@H](NC(=O)CCCCCCCCCCCCCCCCCCC(=O)O)C(=O)O)C(=O)N[C@@H](CO)C(=O)N[C@H](C(=O)N[C@@H](C)C(=O)N[C@H](C(=O)N[C@@H](CC(C)C)C(=O)NCC(=O)N[C@@H](CCCCN)C(=O)N[C@@H](CC(C)C)C(=O)N[C@@H](CO)C(=O)N[C@@H](CCC(N)=O)C(=O)N[C@@H](CCC(=O)O)C(=O)N[C@@H](CC(C)C)C(=O)N[C@@H](Cc1cnc[nH]1)C(=O)N[C@@H](CCC(=O)O)C(=O)N[C@@H](CC(C)C)C(=O)N[C@@H](CCC(N)=O)C(=O)N[C@H](C(=O)N[C@@H](Cc1ccc(O)cc1)C(=O)N1CCC[C@H]1C(=O)N1CCC[C@H]1C(=O)N[C@H](C(=O)N[C@@H](CCC(=O)O)C(=O)N[C@H](C(=O)NCC(=O)N[C@@H](CO)C(=O)NCC(=O)N[C@H](C(=O)N[C@@H](Cc1ccc(O)cc1)C(N)=O)[C@@H](C)O)[C@@H](C)O)[C@@H](C)O)[C@@H](C)O)C(C)C)[C@@H](C)O` [compound 131, [N-terminal(C20 diacid-gGlu), des1, 4G, 9V, 12K, 15Q, 21Q, 23Y, 25P, 30S, 31G, 32T, 33Y]mimylin] ({C20 diacid-γGlu}-ASGLSTAVLGKLSQELHELQTYPPTETGSGTY-NH2), the Solubility result in data set [3] (pH 3.0), in data set [3] (pH 5.0), in data set [3] (pH 6.0), in data set [3] (pH 6.5), in data set [3] (pH 7.0) and in data set [3] (pH 7.5) was “≧200 μM” throughout. The Solubility result in data set [3] (pH 8.0) is listed as “≧200 μM”. The compound also gave a solubility at 18 h in data set [3] of 10 µM (≈ 37.9 µg/mL). Also, the pIC50 in data set [4] was 9.61.
